# Experimental data reported in ChEMBL document CHEMBL1151294, “Evaluation of limonoids against the murine P388 lymphocytic leukemia cell line” (J Nat Prod, 1983).
# Calls of active or inactive are those of the source. The rule behind the calls is not given here.
# Experiments:
# Assay type in all cases: functional, organism-based
# P388 [1] = assay: In vivo antitumor activity against mouse P388 cells at 3 to 24 mg
# P388 [2] = assay: In vivo antitumor activity against mouse P388 cells at 0.5 to 4 mg
# P388 [3] = assay: In vivo antitumor activity against mouse P388 cells at 0.25 to 2 mg
# P388 [4] = assay: In vivo antitumor activity against mouse P388 cells at 1.25 to 2.5 mg
# P388 [5] = assay: In vivo antitumor activity against mouse P388 cells at 5 to 20 mg
# P388 [6] = assay: In vivo antitumor activity against mouse P388 cells at 1.5 to 24 mg
# P388 [7] = assay: In vivo antitumor activity against mouse P388 cells at 1.5 to 12 mg
# P388 [8] = assay: In vivo antitumor activity against mouse P388 cells at 0.5 to 8 mg
# P388 [9] = assay: In vivo antitumor activity against mouse P388 cells at 0.75 to 6 mg
# P388 [10] = assay: In vivo antitumor activity against mouse P388 cells at 0.03 to 2 mg
# P388 [11] = assay: In vivo antitumor activity against mouse P388 cells at 2.5 to 40 mg
# P388 [12] = assay: In vivo antitumor activity against mouse P388 cells at 3.7 to 7.5 mg
# P388 [13] = assay: In vivo antitumor activity against mouse P388 cells at 1.25 to 10 mg
# P388 [14] = assay: In vivo antitumor activity against mouse P388 cells at 0.01 to 2.4 mg
# P388 [15] = assay: In vivo antitumor activity against mouse P388 cells at 0.75 to 12 mg
# P388 [16] = assay: In vivo antitumor activity against mouse P388 cells at 0.37 to 6 mg
# P388 [17] = assay: In vivo antitumor activity against mouse P388 cells at 2 to 200 mg
smiles,measurement,setting,value
CC(=O)O[C@@H]1C[C@@]2(C)[C@H](c3ccoc3)C[C@H]3O[C@]32[C@]2(C)C(=O)C(O)=C3C(C)(C)C(=O)C=C[C@]3(C)C12 (stereo partly drawn),Activity,P388 [1],inactive
CC1(C)O[C@@H](CC(=O)O)[C@]23CO[C@H](C(=O)[C@]4(C)[C@@H]2CC[C@@]2(C)[C@H]([C@H]5CCOC5)OC(=O)[C@H]5O[C@]524)[C@H]13,Activity,P388 [2],inactive
C[C@]12C[C@H](c3ccoc3)OC(=O)[C@@H]1CC[C@@]13COC(=O)C1=CCC[C@@H]32,Activity,P388 [3],inactive
CC(=O)O[C@@H]1C[C@H](O)[C@@]23CO[C@H](O)[C@]1(C)[C@@H]2C[C@@H](O)[C@]1(C)[C@@H]3C(=O)[C@H](O)[C@@]2(C)[C@H](c3ccoc3)C[C@H]3O[C@@]321,Activity,P388 [4],inactive
same,Activity,P388 [5],Toxic
CC1(C)C(=O)C=C[C@]2(C)[C@H]3CC[C@@]4(C)[C@H](c5ccoc5)OC(=O)[C@H]5O[C@]54[C@]3(C)[C@H](O)C[C@@H]12,Activity,P388 [6],inactive
CC1(C)O[C@H]1[C@H]1C[C@@H]([C@@H]2CC[C@]3(C)C4=CC[C@H]5C(C)(C)C(=O)CC[C@]5(C)[C@H]4CC[C@@]23C)[C@H](O)O1,Activity,P388 [7],inactive
CC1=C2CC(=O)O[C@H](c3ccoc3)[C@]2(C)CC[C@@H]1[C@@]12COC(=O)C[C@@H]1OC(C)(C)C2CC(=O)O (stereo partly drawn),Activity,P388 [2],inactive
CC1(C)C(=O)CC[C@]2(C)[C@H]3CC[C@@]4(C)[C@H](c5ccoc5)OC(=O)[C@H]5O[C@]54[C@]3(C)C(=O)C[C@@H]12,Activity,P388 [8],inactive
CC(=O)OC1=C2C(C)(C)O[C@H]3CC(=O)OC[C@@]23[C@H]2CC[C@@]3(C)[C@@H](c4ccoc4)OC(=O)[C@H]4O[C@]43[C@]2(C)C1=O,Activity,P388 [2],inactive
CC(=O)O[C@@H]1C[C@H](O)[C@@]23CO[C@H](O)[C@]1(C)[C@@H]2C[C@@H](O)[C@]1(C)[C@@H]3C(=O)C[C@@]2(C)[C@H](c3ccoc3)C[C@H]3O[C@]312,Activity,P388 [3],inactive
CC1(C)O[C@@H](CC(=O)O)[C@]23CO[C@H](C(=O)[C@]4(C)[C@@H]2CC[C@@]2(C)[C@@H](c5ccoc5)OC(=O)[C@H]5O[C@]524)[C@H]13,Activity,P388 [9],inactive
C[C@H]1CC[C@@]23COC(=O)C2=CCC[C@@H]3[C@@]12C[C@H](c1ccoc1)OC2=O,Activity,P388 [10],inactive
CC1(C)O[C@H]2CC(=O)OC[C@]23[C@H]2CC[C@@]4(C)[C@@H](c5ccoc5)OC(=O)[C@H]5O[C@]54[C@]2(C)[C@@H](O)C[C@@H]13,Activity,P388 [9],inactive
CC1(C)O[C@H]2CC(=O)OC[C@@]23[C@H]1CC(=O)[C@@]1(C)C2=CC(=O)O[C@H](c4ccoc4)[C@]2(C)CC[C@@H]13,Activity,P388 [2],inactive
CC(C)(O)[C@@H]1CC(=O)[C@]2(C)[C@H](CC[C@@]3(C)[C@@H](c4ccoc4)OC(=O)[C@H]4O[C@]432)[C@@]1(C)/C=C\C(=O)O,Activity,P388 [9],inactive
CC(=O)O[C@@H]1C[C@H]2C(C)(C)C(=O)C=C[C@]2(C)[C@H]2CC[C@]3(C)C(=CC(=O)O[C@H]3c3ccoc3)[C@@]21C,Activity,P388 [11],inactive
C=C1[C@@H]([C@@]2(C)[C@@H](OC(C)=O)CC(=O)O[C@](C)(COC(C)=O)[C@@H]2C(=O)OC)[C@@H](OC=O)[C@H](OC(=O)[C@H](O)[C@H](C)CC)[C@@]2(C)[C@H](c3ccoc3)CC(=O)[C@]12O,Activity,P388 [12],inactive
CC1(C)C(=O)C=C[C@]2(C)[C@H]3CC[C@@]4(C)[C@H](c5ccoc5)OC(=O)[C@H]5O[C@]54[C@]3(C)C(=O)C[C@@H]12,Activity,P388 [6],inactive
CC(=O)O[C@H]1[C@@H](OC(C)=O)[C@]2(C)[C@H](CC[C@]3(C)[C@H](c4ccoc4)C[C@@H]4O[C@]423)[C@@]2(C)C=CC(=O)OC(C)(C)[C@H]12,Activity,P388 [13],inactive
CC(=O)O[C@@H]1C[C@H](O)[C@@]23CO[C@H](O)[C@]1(C)[C@@H]2C[C@@H](O)[C@@]1(C)[C@@H]2C(=O)C[C@@H](c4ccoc4)[C@]2(C)CC(=O)[C@@H]13,Activity,P388 [14],inactive
"CC(=O)O[C@@H]1C[C@@H]2[C@](C)(C=C[C@@H](O)[C@]2(C)OC(C)=O)[C@H]2C(=O)[C@H](OC(C)=O)[C@@]3(C)C(c4ccoc4)C[C@H]4O[C@@]43[C@@]21C (single isomer, unassigned)",Activity,P388 [15],inactive
COC(=O)[C@@]1(C)CCC[C@]2(C)C3=C(CC[C@@H]12)C(=O)c1occc1CC3,Activity,P388 [16],inactive
"CC(=O)OC1[C@@H]2[C@@]3(C)C=C[C@@H](O)[C@](C)(OC(C)=O)[C@@H]3C[C@@H](OC(C)=O)[C@@]2(C)[C@]23O[C@@H]2CC(c2ccoc2)[C@]3(C)[C@H]1OC(=O)C(C)C (single isomer, unassigned)",Activity,P388 [15],inactive
C=C1[C@@H]2CC[C@@]3(C)[C@H](c4ccoc4)OC(=O)C[C@]13O[C@H]1CC(=O)C(C)(C)[C@H](CC(=O)OC)[C@]12C,Activity,P388 [17],inactive
CC1(C)O[C@H]2CC(=O)OC[C@]23[C@H]2CC[C@@]4(C)[C@@H](c5ccoc5)OC(=O)[C@H]5O[C@]54[C@]2(C)[C@@H](OC(=O)CCl)C[C@@H]13,Activity,P388 [8],inactive
CC1(C)O[C@H]2CC(=O)OC[C@@]23C1=C(O)C(=O)[C@]1(C)[C@@H]3CC[C@@]2(C)[C@@H](c3ccoc3)OC(=O)[C@H]3O[C@]321,Activity,P388 [2],inactive
CC1(C)OC(=O)C=C[C@]2(C)[C@H]3CC[C@]4(C)[C@H](c5ccoc5)C[C@@H]5O[C@@]54[C@]3(C)C(=O)[C@H](O)[C@@H]12,Activity,P388 [13],inactive
